According to patent publication US20110123512A1, “METHOD OF REGULATING THE HEAT SHOCK RESPONSE” (priority 2008, published 2011):
“Also recorded” adds a separate entry of the source.

Tests used:
hsp70 (C12C8.1) mRNA [1] = assay: cadmium stress: hsp70 (C12C8.1) induction; type: in vivo, C. elegans; conditions: 50 μM
Procedure: (§1) mRNA was prepared using the “ABSOLUTELY RNA® Nanoprep Kit” (Stratagene, Catalog #400753). The manufacturer's protocol was adapted to achieve maximal lysis of worms. Briefly, 5-10 adult animals were picked either from the control or experimental plates into 100 μl of buffer made up by mixing 7 μl 13-ME (instead of the recommended 0.7 μl 13-ME), with 100 μl Lysis Buffer provided by the manufacturer. The suspension was subjected to numerous cycles of freeze-thawing in liquid nitrogen and vortexing until the animals were completely lysed. RNA was then purified as detailed in the manufacturer's protocol. mRNA was reverse transcribed using the ISCRIPT™ cDNA Synthesis Kit (Bio-Rad, Catalog #170-8891). Quantitative PCR was performed using iQ™ SYBR® Green Supermix (Bio-Rad, Catalog #170-8880), in the iCycler system (Bio-Rad) at a 25 μl sample volume, in thin wall 200 μl PCR plates (Cat. No. 223-9441) sealed with the optical quality sealing tape (Cat. No. 223-9444).
(§2) The relative amounts of hsp mRNA were determined using the Comparative CT Method for quantitation (14). The levels of hsp mRNA levels within an experiment were determined relative to actin mRNA, which was used as the internal control. The range of input of RNA was determined using serial dilutions of the cDNA that yielded a CT value of <30, for both the target cDNA and actin was used in all experiments. […]

[2] = system: cadmium responsive genes, cdr-1 and mtl-1; assay: cadmium stress: cadmium-responsive gene induction; type: in vivo, C. elegans
Procedure: as §1
The relative amounts of hsp mRNA were determined using the Comparative CT Method for quantitation (14). The levels of hsp mRNA levels within an experiment were determined relative to actin mRNA, which was used as the internal control. The range of input of RNA was determined using serial dilutions of the cDNA that yielded a CT value of <30, for both the target cDNA and actin was used in all experiments. This typically corresponded to 1 μl of the total cDNA obtained per sample. CT values were obtained in triplicate for each sample (technical triplicate), and three samples were used per experiment. Each experiment was then repeated a minimum of three times. All relative changes of hsp mRNA in the mutant strains were normalized to maximal wild-type values, except where otherwise noted.
Sterile-filtered cadmium chloride was added to a final concentration of 50 μM to standard, autoclaved, NGM medium, and used to make plates. OP50 was seeded onto the plates as described above. […] These animals were then harvested for quantitative RT-PCR. […]

hsp70 (C12C8.1) mRNA [3] = assay: effect of dauer pheromone on the heat shock response; type: in vivo, C. elegans
Procedure: C. elegans strains were grown as described above, and all animals were heat shocked at a population density of 10 adults per plate. Sufficient N values were obtained by repeating each heat shock experiment a minimum of 3 times, with 3 samples of 10 animals per plate, per experiment. Heat shock at 30° C. or 34° C., for 15 minutes on agarose plates was achieved by sealing plates with parafilm, further sealing within zip-lock bags, and immersing in a water bath equilibrated to the appropriate temperature. Following heat shock, the parafilm was removed and the animals were allowed to recover at 20° C. for the course of the experiment.
mRNA was prepared using the “ABSOLUTELY RNA® Nanoprep Kit” (Stratagene, Catalog #400753). […] Quantitative PCR was performed using iQ™ SYBR® Green Supermix (Bio-Rad, Catalog #170-8880), in the iCycler system (Bio-Rad) at a 25 μl sample volume, in thin wall 200 μl PCR plates (Cat. No. 223-9441) sealed with the optical quality sealing tape (Cat. No. 223-9444).
as §2

[4] = system: hsp70 (C12C8.1) expression; assay: heat shock induction of hsp70 (C12C8.1) in worms anesthetized with volatile anesthetics; type: in vivo, C. elegans; conditions: for hsp70 (C12C8.1) expression in somatic cells: wild-type animals exposed to VAs for the full duration of heat shock (34° C., 15 minutes), 2 hours after recovery; for fraction of animals expressing GFP (hsp70 (C12C8.1) promoter GFP reporter): wild-type animals, VAs during heat shock, 2 hours post-heat shock, control 100%
C. elegans = assay: anesthesia: inhibition of movement and recovery; type: in vivo; conditions: within the first 15 minutes following exposure; no death; 10 adults per plate
Procedure: The VA anesthetics used were 2-Bromo-2-chloro-1,1,1-trifluoroethane (Halothane, Fluka, catalog #16730) and Isoflurane (Webster Veterinary NDC#14043-220-05). VA anesthetics were delivered as follows: lids of 1.5 ml eppendorf tubes were cut off, VA was pipetted into the lids, and the lids containing VAs were placed onto plates containing 10 adult wild-type or gcy-8 animals grown as described, and the plates were immediately sealed with parafilm. To inhibit neuronal signaling during the course of heat shock, the VA containing lids were placed on plates 5 minutes prior to the heat shock, and retained during the heat shock treatment of 34° C. for 15 minutes. The lids were then removed 10 minutes post-heat shock during recovery at 20° C., when the plates had equilibrated to 20° C. To inhibit neuronal signaling following the administration of heat shock, animals were heat shocked, and then the lids containing the same volume of VA was placed onto plates 20 minutes post-heat shock, and removed after 30 minutes.
As has been described before, the effect of the VA is extremely variable in any given population of C. elegans (15, 16) and is also influenced by other environmental factors, such as population density, to which the animals are exposed (15). Therefore it was necessary to titrate the amount of VA used for each experiment. […]

[Cl][Cd][Cl] [cadmium, cadmium chloride]
hsp70 (C12C8.1) mRNA further induction (hsp70 (C12C8.1) mRNA [1]; after 16 hours of exposure): more than 10 fold
hsp70 (C12C8.1) mRNA (hsp70 (C12C8.1) mRNA [1]; wild-type and gcy-8 mutant animals, 3 hours of exposure): similarly increased
expression of cdr-1 and mtl-1 upon exposure to cadmium ([2]; gcy-8 (thermosensory deficient) adult animals): can induce
expression of cdr-1 and mtl-1 upon exposure to cadmium ([2]; osm-9 and ocr-2 mutant animals): deficient in their ability to upregulate
cdr-1 mRNA ([2]; wild-type and gcy-8 mutant animals, 3 hours of exposure, 50 μM): similarly increased

C[C@H](CCCCC(=O)O)O[C@@H]1O[C@@H](C)[C@H](O)C[C@H]1O [dauer pheromone]
amounts of hsp70 (C12C8.1) mRNA after heat shock (hsp70 (C12C8.1) mRNA [3]; gcy-8 mutant animals exposed to dauer pheromone, compared with heat-shocked wild-type under optimal growth conditions): induced even higher amounts
amounts of hsp70 (C12C8.1) mRNA after heat shock (hsp70 (C12C8.1) mRNA [3]; wild-type animals, high concentrations of dauer pheromone prior to or during heat shock (34° C., 15 minutes)): decreased

FC(F)(F)C(Cl)Br (stereo not shown) [halothane, 2-Bromo-2-chloro-1,1,1-trifluoroethane]
hsp70 (C12C8.1) expression in somatic cells [4]: inhibition; also recorded: marked decrease
fraction of animals expressing GFP (hsp70 (C12C8.1) promoter GFP reporter) [4]: 20%
volume of VA that inhibited the movement of 100% of the animals on a plate (C. elegans): 5 to 15 µL

FC(F)OC(Cl)C(F)(F)F (stereo not shown) [isoflurane, Isoflurane]
hsp70 (C12C8.1) expression in somatic cells [4]: inhibition; also recorded: marked decrease
fraction of animals expressing GFP (hsp70 (C12C8.1) promoter GFP reporter) [4]: 20%
volume of VA that inhibited the movement of 100% of the animals on a plate (C. elegans): 10 to 25 µL
